In patent publication US20260085034A1, “N-(BENZHYDRYL)CYCLOALKYLCARBOXAMIDE DERIVATIVES AS INHIBITORS OF GLYCOGEN SYNTHASE 1 (GYS1) AND METHODS OF USE THEREOF” (Maze Therapeutics, Inc., priority 2022, published 2026):

Tests used:
[1] = target: T1, recombinant hGYS1/GN1 protein (Homo sapiens, UniProt P13807); assay: GYS1 coupled enzyme assay (PK/LDH); assay type: biochemical; details: geometric mean of at least 2 assay runs; NADH absorbance at 340 nm
T1 sequence (P13807 1-737): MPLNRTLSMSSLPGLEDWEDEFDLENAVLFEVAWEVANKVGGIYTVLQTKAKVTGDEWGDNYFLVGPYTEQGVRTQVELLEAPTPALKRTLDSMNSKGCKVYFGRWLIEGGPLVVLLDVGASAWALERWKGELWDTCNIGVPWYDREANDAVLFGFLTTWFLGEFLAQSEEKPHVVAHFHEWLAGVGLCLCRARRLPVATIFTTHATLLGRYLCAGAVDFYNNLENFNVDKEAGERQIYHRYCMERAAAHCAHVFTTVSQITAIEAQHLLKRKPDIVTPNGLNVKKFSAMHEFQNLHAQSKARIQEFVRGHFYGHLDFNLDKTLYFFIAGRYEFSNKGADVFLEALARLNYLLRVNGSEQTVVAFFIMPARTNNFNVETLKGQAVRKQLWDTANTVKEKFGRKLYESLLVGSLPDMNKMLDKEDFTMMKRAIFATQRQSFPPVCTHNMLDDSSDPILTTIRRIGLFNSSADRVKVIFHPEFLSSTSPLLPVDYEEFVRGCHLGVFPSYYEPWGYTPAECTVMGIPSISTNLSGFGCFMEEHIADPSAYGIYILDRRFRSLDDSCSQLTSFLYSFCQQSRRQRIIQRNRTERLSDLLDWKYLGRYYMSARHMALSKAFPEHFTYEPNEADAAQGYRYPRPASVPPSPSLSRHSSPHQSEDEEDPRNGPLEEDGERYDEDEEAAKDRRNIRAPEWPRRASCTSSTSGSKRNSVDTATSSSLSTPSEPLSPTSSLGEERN
T1 sequence (P46976 1-350 partner): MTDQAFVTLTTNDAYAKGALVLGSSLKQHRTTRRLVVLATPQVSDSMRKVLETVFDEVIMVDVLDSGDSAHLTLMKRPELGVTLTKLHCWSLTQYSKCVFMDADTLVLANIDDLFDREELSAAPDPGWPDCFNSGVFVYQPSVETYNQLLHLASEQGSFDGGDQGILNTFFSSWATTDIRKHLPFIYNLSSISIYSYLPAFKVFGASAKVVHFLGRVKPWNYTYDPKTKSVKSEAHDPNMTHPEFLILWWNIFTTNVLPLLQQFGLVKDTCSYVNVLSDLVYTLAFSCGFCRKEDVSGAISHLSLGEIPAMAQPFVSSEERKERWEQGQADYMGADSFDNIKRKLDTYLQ
From the text: (§1) The GYS1 coupled enzyme assay is a kinetic biochemical assay that indirectly quantifies the rate of glycogen synthesis by coupling the conversion of GYS1 substrate UDP-glucose into UDP with downstream enzymatic reactions. UDP is released from UDP-glucose as glucose monomers are linked into the growing glycogen strand by GYS1. The coupled assay then proceeds with pyruvate kinase utilizing UDP and phospho(enol)pyruvate (PEP) to form pyruvate. Lactate dehydrogenase then converts pyruvate and NADH into lactate and NAD+. Oxidation of NADH to NAD+ can be measured continuously with a plate reader by quantifying the decrease in NADH absorbance at 340 nm over time.
Compounds that inhibit the hGYS1 enzyme and, subsequently, the downstream conversion of NADH to NAD+, were tested using assay ready plates (black, clear bottom 384 well plates) in a final DMSO reaction volume of 2.5% DMSO. The Assay Buffer contained 50 mM Tris pH 7.5, 2 mM MgCl2, and 100 mM KCl. Fresh stocks of BSA at a final concentration of 0.02% and TCEP at 1 mM were added before splitting buffer into hGYS1 buffer and substrate buffer. To the hGYS1 buffer, rabbit liver glycogen was added at a final concentration of 0.2% glycogen. Glucose-6-Phosphate was added at 1 mM, recombinant hGYS1/GN1 protein was added at 50 nM to the substrate buffer, phosphoenolpyruvate (PEP) was added at 2 mM, UDP-Glucose was added at 0.8 mM, NADH) was added at 0.6 mM, and Pyruvate Kinase/Lactate Dehydrogenase was added at 20 units/mL. The reaction was initiated by mixing hGYS1 buffer and substrate buffer at a 1:1 ratio. Both buffers were plated using a liquid dispensing device with hGYS1 buffer plated first followed by the substrate buffer. Plates were spun briefly to eliminate air bubbles and are immediately read in continuous mode at an absorbance of 340 nm, for 10 time points in one-minute increments, for a total of 10 minutes. The slope from these 10 time points was normalized to the positive and negative control wells. The duplicate % inhibition values are then averaged and fit to a Hill equation for dose response according to the Levenberg-Marquardt algorithm with the Hill equation maximum set to 100 and the minimum set to 0.
The results are shown in Table 3 below, which reports the IC50 of each compound. Unless otherwise specified, IC50 values are reported as the geometric mean of at least 2 assay runs on separate days. Each run represents the average of a technical replicate, where each compound was assayed twice in the same plate. As shown in the table below, the compounds of the present invention are potent inhibitors of human GYS1.

[2] = target: T2, recombinant hGYS2/GN1 protein (Homo sapiens, UniProt P54840); assay: GYS2 coupled enzyme assay (PK/LDH); assay type: biochemical; details: geometric mean of at least 2 assay runs; NADH absorbance at 340 nm
T2 sequence (P54840 1-703): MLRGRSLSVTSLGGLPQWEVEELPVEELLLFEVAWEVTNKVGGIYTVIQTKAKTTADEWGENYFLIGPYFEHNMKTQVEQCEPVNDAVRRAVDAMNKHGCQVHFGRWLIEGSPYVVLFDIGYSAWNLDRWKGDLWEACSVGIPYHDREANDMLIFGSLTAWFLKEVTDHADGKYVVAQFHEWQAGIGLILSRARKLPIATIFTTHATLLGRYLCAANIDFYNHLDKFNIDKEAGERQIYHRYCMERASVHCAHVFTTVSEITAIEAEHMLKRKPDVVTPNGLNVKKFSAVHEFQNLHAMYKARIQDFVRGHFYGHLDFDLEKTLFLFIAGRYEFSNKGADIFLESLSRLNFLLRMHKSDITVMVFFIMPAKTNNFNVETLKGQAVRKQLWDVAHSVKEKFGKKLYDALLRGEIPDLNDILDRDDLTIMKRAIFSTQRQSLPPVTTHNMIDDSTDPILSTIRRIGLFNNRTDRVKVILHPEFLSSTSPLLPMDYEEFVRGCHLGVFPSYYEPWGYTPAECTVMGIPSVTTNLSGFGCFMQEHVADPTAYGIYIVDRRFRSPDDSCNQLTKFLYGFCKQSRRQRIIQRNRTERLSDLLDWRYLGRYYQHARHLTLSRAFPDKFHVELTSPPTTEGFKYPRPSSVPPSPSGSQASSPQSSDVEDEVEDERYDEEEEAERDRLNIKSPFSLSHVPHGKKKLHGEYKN
T2 sequence (P46976 1-350 partner): T1 sequence (P46976 1-350 partner)
From the text: as §1, with “GYS2” for “GYS1”, “GYS2.” for “GYS1.”
Compounds that inhibit the hGYS2 enzyme and, subsequently, the downstream conversion of NADH to NAD+, were tested using assay ready plates (black, clear bottom 384 well plates) in a final DMSO reaction volume of 2.5% DMSO. The Assay Buffer contained 50 mM Tris pH 7.5, 2 mM MgCl2, and 100 mM KCl. Fresh stocks of BSA at a final concentration of 0.02% and TCEP 1 mM were added before splitting buffer into hGYS2 buffer and substrate buffer. To the hGYS2 buffer, rabbit liver glycogen was added at a final concentration of 0.2% glycogen. Glucose-6-Phosphate was added at 2 mM, recombinant hGYS2/GN1 protein was added at 200 nM to the substrate buffer, phosphoenolpyruvate (PEP) was added at 2 mM, UDP-Glucose was added at 2 mM, NADH was added at 0.6 mM, and Pyruvate Kinase/Lactate Dehydrogenase was added at 20 units/mL. The reaction was initiated by mixing hGYS2 buffer and substrate buffer at a 1:1 ratio. Both buffers were plated using a liquid dispensing device with hGYS2 buffer plated first followed by the substrate buffer. Plates were spun briefly to eliminate air bubbles and are immediately read in continuous mode at an absorbance of 340 nm, for 10 time points in one-minute increments, for a total of 10 minutes. The slope from these 10 time points was normalized to the positive and negative control wells. The duplicate % inhibition values are then averaged and fit to a Hill equation for dose response according to the Levenberg-Marquardt algorithm with the Hill equation maximum set to 100 and the minimum set to 0.
The results are shown in Table 5 below, which reports the IC50 of each compound. Unless otherwise specified, IC50 values are reported as the geometric mean of at least 2 assay runs on separate days. As shown in the table below, the compounds of the present invention are not potent inhibitors of human GYS2. […] Each run represents the average of a technical replicate, where each compound was assayed twice in the same plate.

| Structure (SMILES) | IC50 [1] [nM] | IC50 [2] [nM] |
| --- | --- | --- |
| COCCN1CCC(C(=O)Nc2ccccc2[C@H](NC(=O)[C@H]2C[C@@H]2F)c2ccc(C(C)C)cc2)CC1 [compound 13, N-(2-((R)-((1R,2S)-2-fluorocyclopropane-1-carboxamido)(4-isopropylphenyl)methyl)phenyl)-1-(2-methoxyethyl)piperidine-4-carboxamide] | 1040 | > 100000 |
| CC(C)c1ccc([C@@H](NC(=O)[C@H]2C[C@@H]2F)c2ccccc2NC(=O)C2CCN(CC3CC3)CC2)cc1 [compound 14, 1-(cyclopropylmethyl)-N-(2-((R)-((1R,2S)-2-fluorocyclopropane-1-carboxamido)(4-isopropylphenyl)methyl)phenyl)piperidine-4-carboxamide] | 891 | > 100000 |
| CC(C)c1ccc([C@@H](NC(=O)C2CC2)c2ccccc2N/C(N)=N/C#N)cc1 [compound 19, (R,E)-N-((2-(2-cyanoguanidino)phenyl)(4-isopropylphenyl)methyl)cyclopropanecarboxamide] | 304 | > 100000 |
| CC(C)c1ccc([C@@H](NC(=O)[C@H]2C[C@@H]2F)c2ccccc2)cc1 [compound 36, (1R,2S)-2-fluoro-N-((S)-(4-isopropylphenyl)(phenyl)methyl)cyclopropane-1-carboxamide] | 418 | > 100000 |
| CC(=O)N1CC(C(=O)Nc2ccccc2[C@H](NC(=O)C2CC2)c2ccc(C(C)C)cc2)C1 [compound 37, (R)-1-acetyl-N-(2-(cyclopropanecarboxamido(4-isopropylphenyl)methyl)phenyl)azetidine-3-carboxamide] | 1060 | > 100000 |
| CC(=O)Nc1ccccc1[C@H](NC(=O)C1CC1)c1ccc(C(C)C)cn1 [compound 46, (S)-N-((2-acetamidophenyl)(5-isopropylpyridin-2-yl)methyl)cyclopropanecarboxamide] | 1420 | > 100000 |
| CNC(=O)Nc1ccccc1[C@H](NC(=O)C1CC1)c1ccc(C(C)C)cc1 [compound 53, (R)-N-((4-isopropylphenyl)(2-(3-methylureido)phenyl)methyl)cyclopropanecarboxamide] | 1230 | > 100000 |
| CC(C)c1ccc([C@@H](NC(=O)C2CC2)c2ccn[nH]2)cc1 [compound 56, (R)-N-((4-isopropylphenyl)(1H-pyrazol-5-yl)methyl)cyclopropanecarboxamide] | 372 | > 100000 |
| CCC(=O)Nc1ccccc1[C@H](NC(=O)C1CC1)c1ccc(C(C)C)cc1 [compound 59, (R)-N-((4-isopropylphenyl)(2-propionamidophenyl)methyl)cyclopropanecarboxamide] | 441 | > 100000 |

The next lines start with the values.

| IC50 [1] [nM] | IC50 [2] [nM] | Structure (SMILES) |
| --- | --- | --- |
| 1190 | > 100000 | CC(C)c1ccc([C@@H](NC(=O)C2CC2)c2ccccc2NC(=O)C2CN(C)C2)cc1 [compound 26, (R)-N-(2-(cyclopropanecarboxamido(4-isopropylphenyl)methyl)phenyl)-1-methylazetidine-3-carboxamide] |
| 598 | > 100000 | CC(C)c1ccc([C@@H](NC(=O)[C@@H]2C[C@H]2F)c2ccccc2)cc1 [compound 27, (1S,2R)-2-fluoro-N-((S)-(4-isopropylphenyl)(phenyl)methyl)cyclopropane-1-carboxamide] |
| 1060 | > 100000 | CC(C)c1ccc([C@@H](NC(=O)C2CC2)c2ccccc2NC(=O)C2CNC2)cc1 [compound 48, (R)-N-(2-(cyclopropanecarboxamido(4-isopropylphenyl)methyl)phenyl)azetidine-3-carboxamide] |
| 346 | > 100000 | CC(C)c1ccc([C@@H](NC(=O)C2CC2)c2ccccc2NC(N)=O)cc1 [compound 54, (R)-N-((4-isopropylphenyl)(2-ureidophenyl)methyl)cyclopropanecarboxamide] |
| 2170 | > 100000 | CC(C)c1ccc([C@@H](NC(=O)C2CC2)c2ccccc2NS(C)(=O)=O)cc1 [compound 57, (R)-N-((4-isopropylphenyl)(2-(methylsulfonamido)phenyl)methyl)cyclopropanecarboxamide] |
